# Data as given in patent US12209087B2, “AKT1 modulators” (Alterome Therapeutics, Inc., priority 2022, dated 2025).
# Target: T1, full length AKT E17K (Homo sapiens, UniProt P31749, E17K)
# T1 construct: host or cells: HEK-293 (ATCC CRL-1573)
# Test: NanoBRET Target Engagement (TE) Assay
# Format: cell-based
# Conditions: competitive displacement of tracer in cells, read-out: AKT1 E17K IC50
# Summary of the method: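 Compound and tracer incubated 2 h before luminescence at donor 450 nm and acceptor 600 nm, with extracellular signal inhibited. EC50 by sigmoidal variable-slope regression.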
# T1 sequence (P31749 whole entry E17K): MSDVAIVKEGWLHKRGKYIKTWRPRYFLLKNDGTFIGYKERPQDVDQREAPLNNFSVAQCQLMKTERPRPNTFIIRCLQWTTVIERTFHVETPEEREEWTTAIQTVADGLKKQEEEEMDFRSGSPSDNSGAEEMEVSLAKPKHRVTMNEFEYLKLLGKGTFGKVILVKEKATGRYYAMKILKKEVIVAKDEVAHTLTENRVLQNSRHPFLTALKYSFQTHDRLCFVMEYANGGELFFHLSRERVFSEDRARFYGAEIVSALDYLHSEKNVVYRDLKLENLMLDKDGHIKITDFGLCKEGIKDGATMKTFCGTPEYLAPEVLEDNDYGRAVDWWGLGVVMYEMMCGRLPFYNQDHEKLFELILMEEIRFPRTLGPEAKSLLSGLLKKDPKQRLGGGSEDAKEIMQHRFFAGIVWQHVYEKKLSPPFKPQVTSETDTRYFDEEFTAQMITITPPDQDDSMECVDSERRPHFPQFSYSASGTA
smiles,measurement,value
"N#Cc1ccc2nc(-c3cccnc3N)n(-c3ccc(CN4CCC(Nc5ccnc(C#N)n5)CC4)cc3)c2c1 [Example 500, 2-(2-Aminopyridin-3-yl)-1-(4-((4-((2-cyanopyrimidin-4-yl)amino)piperidin-1-yl)methyl)phenyl)-1H-benzo[d]imidazole-6-carbonitrile]",IC50,< 15 nM
"N#Cc1ccc2c(c1)nc(-c1cccnc1N)n2-c1ccc(CN2CCC(Nc3ccnc(C#N)n3)CC2)cc1 [Example 501, 2-(2-Aminopyridin-3-yl)-1-(4-((4-((2-cyanopyrimidin-4-yl)amino)piperidin-1-yl)methyl)phenyl)-1H-benzo[d]imidazole-5-carbonitrile]",IC50,15 to 60 nM
"[2H]C([2H])([2H])N(c1ccnc(C#N)n1)C1CCN(C([2H])([2H])c2ccc(-n3c(-c4cccnc4N)nc4cccnc43)cc2)CC1 [Example 502, 4-((1-((4-(2-(2-Aminopyridin-3-yl)-3H-imidazo[4,5-b]pyridin-3-yl)phenyl)methyl-d2)piperidin-4-yl)(methyl-d3)amino)pyrimidine-2-carbonitrile]",IC50,15 to 60 nM
"[2H]C1(Nc2ccnc(C#N)n2)CCN(Cc2ccc(-n3c(-c4cccnc4N)nc4cccnc43)cc2)CC1 [Example 503, 4-((1-(4-(2-(2-Aminopyridin-3-yl)-3H-imidazo[4,5-b]pyridin-3-yl)benzyl)piperidin-4-yl-4-d)amino)pyrimidine-2-carbonitrile]",IC50,15 to 60 nM
"[2H]C([2H])(c1ccc(-n2c(-c3cccnc3N)nc3cc(C)c(C)nc32)cc1)N1CCC(Nc2ccnc(C#N)n2)CC1 [Example 504, 4-((1-((4-(2-(2-Aminopyridin-3-yl)-5,6-dimethyl-3H-imidazo[4,5-b]pyridin-3-yl)phenyl)methyl-d2)piperidin-4-yl)amino)pyrimidine-2-carbonitrile]",IC50,< 15 nM
"N#Cc1nccc(NC2CCN(Cc3ccc(-n4c(-c5cccnc5N)nc5cncnc54)cc3)CC2)n1 [Example 505, 4-((1-(4-(8-(2-Aminopyridin-3-yl)-9H-purin-9-yl)benzyl)piperidin-4-yl)amino)pyrimidine-2-carbonitrile]",IC50,60 to 600 nM
"N#Cc1nccc(NC2CCN(Cc3ccc(-n4c(-c5cccnc5N)nc5ccc(CO)nc54)cc3)CC2)n1 [Example 508, 4-((1-(4-(2-(2-Aminopyridin-3-yl)-5-(hydroxymethyl)-3H-imidazo[4,5-b]pyridin-3-yl)benzyl)piperidin-4-yl)amino)pyrimidine-2-carbonitrile]",IC50,15 to 60 nM
"N#Cc1nccc(NC2CCN(Cc3ccc(-n4c(-c5cccnc5N)nc5ccc(CF)nc54)cc3)CC2)n1 [Example 509, 4-((1-(4-(2-(2-Aminopyridin-3-yl)-5-(fluoromethyl)-3H-imidazo[4,5-b]pyridin-3-yl)benzyl)piperidin-4-yl)amino)pyrimidine-2-carbonitrile]",IC50,< 15 nM
"N#Cc1nccc(NC2CCN(Cc3ccc(-n4c(-c5cccnc5N)nc5ccc(N6CCCC6)nc54)cc3)CC2)n1 [Example 510, 4-((1-(4-(2-(2-Aminopyridin-3-yl)-5-(pyrrolidin-1-yl)-3H-imidazo[4,5-b]pyridin-3-yl)benzyl)piperidin-4-yl)amino)pyrimidine-2-carbonitrile]",IC50,< 15 nM
"COc1cc(-c2ccc3nc(-c4cccnc4N)n(-c4ccc(CN5CCC(Nc6ccnc(C#N)n6)CC5)cc4)c3n2)ccn1 [Example 511, 4-((1-(4-(2-(2-Aminopyridin-3-yl)-5-(2-methoxypyridin-4-yl)-3H-imidazo[4,5-b]pyridin-3-yl)benzyl)piperidin-4-yl)amino)pyrimidine-2-carbonitrile]",IC50,< 15 nM
"COc1cncc(-c2ccc3nc(-c4cccnc4N)n(-c4ccc(CN5CCC(Nc6ccnc(C#N)n6)CC5)cc4)c3n2)c1 [Example 512, 4-((1-(4-(2-(2-Aminopyridin-3-yl)-5-(5-methoxypyridin-3-yl)-3H-imidazo[4,5-b]pyridin-3-yl)benzyl)piperidin-4-yl)amino)pyrimidine-2-carbonitrile]",IC50,< 15 nM
"C#Cc1ccc2nc(-c3cccnc3N)n(-c3ccc(CN4CCC(Nc5ccnc(C#N)n5)CC4)cc3)c2n1 [Example 513, 4-((1-(4-(2-(2-Aminopyridin-3-yl)-5-ethynyl-3H-imidazo[4,5-b]pyridin-3-yl)benzyl)piperidin-4-yl)amino)pyrimidine-2-carbonitrile]",IC50,< 15 nM
"CC(=O)N(C)c1cccc(-c2ccc3nc(-c4cccnc4N)n(-c4ccc(CN5CCC(Nc6ccnc(C#N)n6)CC5)cc4)c3n2)c1 [Example 514, N-(3-(2-(2-Aminopyridin-3-yl)-3-(4-((4-((2-cyanopyrimidin-4-yl)amino)piperidin-1-yl)methyl)phenyl)-3H-imidazo[4,5-b]pyridin-5-yl)phenyl)-N-methylacetamide]",IC50,< 15 nM
"COc1cnccc1-c1ccc2nc(-c3cccnc3N)n(-c3ccc(CN4CCC(Nc5ccnc(C#N)n5)CC4)cc3)c2n1 [Example 515, 4-((1-(4-(2-(2-Aminopyridin-3-yl)-5-(3-methoxypyridin-4-yl)-3H-imidazo[4,5-b]pyridin-3-yl)benzyl)piperidin-4-yl)amino)pyrimidine-2-carbonitrile]",IC50,< 15 nM
"COc1ccc(-c2ccc3nc(-c4cccnc4N)n(-c4ccc(CN5CCC(Nc6ccnc(C#N)n6)CC5)cc4)c3n2)cn1 [Example 516, 4-((1-(4-(2-(2-Aminopyridin-3-yl)-5-(6-methoxypyridin-3-yl)-3H-imidazo[4,5-b]pyridin-3-yl)benzyl)piperidin-4-yl)amino)pyrimidine-2-carbonitrile]",IC50,< 15 nM
"N#Cc1nccc(NC2CCN(Cc3ccc(-n4c(-c5cccnc5N)nc5ccc(-c6cccc(N)c6)nc54)cc3)CC2)n1 [Example 517, 4-((1-(4-(5-(3-Aminophenyl)-2-(2-aminopyridin-3-yl)-3H-imidazo[4,5-b]pyridin-3-yl)benzyl)piperidin-4-yl)amino)pyrimidine-2-carbonitrile]",IC50,< 15 nM
"CC(C)C(=O)Nc1cccc(-c2ccc3nc(-c4cccnc4N)n(-c4ccc(CN5CCC(Nc6ccnc(C#N)n6)CC5)cc4)c3n2)c1 [Example 518, N-(3-(2-(2-Aminopyridin-3-yl)-3-(4-((4-((2-cyanopyrimidin-4-yl)amino)piperidin-1-yl)methyl)phenyl)-3H-imidazo[4,5-b]pyridin-5-yl)phenyl)isobutyramide]",IC50,< 15 nM
"CC(C)C(=O)Nc1cccc(-c2ccc3nc(-c4cccnc4NC(=O)C(C)C)n(-c4ccc(CN5CCC(Nc6ccnc(C#N)n6)CC5)cc4)c3n2)c1 [Example 519, N-(3-(3-(4-((4-((2-cyanopyrimidin-4-yl)amino)piperidin-1-yl)methyl)phenyl)-2-(2-isobutyramidopyridin-3-yl)-3H-imidazo[4,5-b]pyridin-5-yl)phenyl)isobutyramide]",IC50,15 to 60 nM
"COC(=O)Nc1cccc(-c2ccc3nc(-c4cccnc4N)n(-c4ccc(CN5CCC(Nc6ccnc(C#N)n6)CC5)cc4)c3n2)c1 [Example 520, Methyl (3-(2-(2-aminopyridin-3-yl)-3-(4-((4-((2-cyanopyrimidin-4-yl)amino)piperidin-1-yl)methyl)phenyl)-3H-imidazo[4,5-b]pyridin-5-yl)phenyl)carbamate]",IC50,< 15 nM
"CN(C)c1cccc(-c2ccc3nc(-c4cccnc4N)n(-c4ccc(CN5CCC(Nc6ccnc(C#N)n6)CC5)cc4)c3n2)c1 [Example 521, 4-((1-(4-(2-(2-Aminopyridin-3-yl)-5-(3-(dimethylamino)phenyl)-3H-imidazo[4,5-b]pyridin-3-yl)benzyl)piperidin-4-yl)amino)pyrimidine-2-carbonitrile]",IC50,< 15 nM
